Assay results reported in PubChem BioAssay AID328 (DTP/NCI, 2004).
Values joined by “and” are separate entries in the source; they are usually repeats but may differ in a detail not shown here. Equal values may be shown once. Inconclusive results and toxic doses are left out. How the source made its calls: active means survival T/C of 150% or more; inactive means T/C below 125% in these data.

Tested on: BDF1 mice, P388 leukemia ip, median survival T/C
Experiment: NCI In Vivo Anticancer Drug Screen. Data for tumor model P388 Leukemia (intraperitoneal) in B6D2F1 (BDF1) mice
Settings: endpoint: median survival time, higher = longer survival
Method in brief: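 Mice carrying the transplantable tumour receive compound or vehicle. Survival is followed in each arm, and the treated measure is divided by the vehicle measure.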

[1] = dose: 100.0 mg/kg/injection, schedule: Q04DX003 (ip), vehicle: saline
[2] = dose: 200.0 mg/kg/injection, schedule: Q04DX003 (ip), vehicle: saline
[3] = dose: 400.0 mg/kg/injection, schedule: Q04DX003 (ip), vehicle: saline
[4] = dose: 100.0 mg/kg/injection, schedule: Q01DX009 (ip), vehicle: saline
[5] = dose: 400.0 mg/kg/injection, schedule: Q01DX009 (ip), vehicle: saline

Measured: T/C

O=NN(CCCl)C(=O)Nc1ccc(NC(=O)N(CCCl)N=O)cc1
active: dose: 0.25 mg/kg/injection, schedule: Q01DX009 (ip), vehicle: Klucel (hydroxypropylcellulose) (HPC) 177 % of control | dose: 0.25 mg/kg/injection, schedule: Q04DX003 (ip), vehicle: Klucel (hydroxypropylcellulose) (HPC) 150 % of control | dose: 0.5 mg/kg/injection, schedule: Q01DX009 (ip), vehicle: Klucel (hydroxypropylcellulose) (HPC) 222 % of control | dose: 0.5 mg/kg/injection, schedule: Q04DX003 (ip), vehicle: Klucel (hydroxypropylcellulose) (HPC) 154 % of control | dose: 1.0 mg/kg/injection, schedule: Q04DX003 (ip), vehicle: Klucel (hydroxypropylcellulose) (HPC) 204 % of control | dose: 1.5 mg/kg/injection, schedule: Q01DX009 (ip), vehicle: Klucel (hydroxypropylcellulose) (HPC) 254 % of control | dose: 1.6 mg/kg/injection, schedule: Q04DX003 (ip), vehicle: Klucel (hydroxypropylcellulose) (HPC) 152 % of control | dose: 2.0 mg/kg/injection, schedule: Q04DX003 (ip), vehicle: Klucel (hydroxypropylcellulose) (HPC) 186 % of control | dose: 2.5 mg/kg/injection, schedule: Q04DX003 (ip), vehicle: Klucel (hydroxypropylcellulose) (HPC) 160 % of control and 175 % of control | dose: 3.0 mg/kg/injection, schedule: Q01DX009 (ip), vehicle: Klucel (hydroxypropylcellulose) (HPC) 231 % of control | dose: 3.0 mg/kg/injection, schedule: Q04DX003 (ip), vehicle: Klucel (hydroxypropylcellulose) (HPC) 186 % of control | dose: 4.0 mg/kg/injection, schedule: Q04DX003 (ip), vehicle: Klucel (hydroxypropylcellulose) (HPC) 187 % of control | dose: 6.0 mg/kg/injection, schedule: Q01DX009 (ip), vehicle: Klucel (hydroxypropylcellulose) (HPC) 272 % of control | dose: 6.0 mg/kg/injection, schedule: Q04DX003 (ip), vehicle: Klucel (hydroxypropylcellulose) (HPC) 227 % of control and 187 % of control and 213 % of control | dose: 9.0 mg/kg/injection, schedule: Q04DX003 (ip), vehicle: Klucel (hydroxypropylcellulose) (HPC) 190 % of control | dose: 12.0 mg/kg/injection, schedule: Q04DX003 (ip), vehicle: Klucel (hydroxypropylcellulose) (HPC) 213 % of control | dose: 12.5 mg/kg/injection, schedule: Q01DX009 (ip), vehicle: Klucel (hydroxypropylcellulose) (HPC) 300 % of control | dose: 13.0 mg/kg/injection, schedule: Q04DX003 (ip), vehicle: Klucel (hydroxypropylcellulose) (HPC) 231 % of control and 259 % of control | dose: 20.0 mg/kg/injection, schedule: Q04DX003 (ip), vehicle: Klucel (hydroxypropylcellulose) (HPC) 245 % of control | dose: 25.0 mg/kg/injection, schedule: Q01DX009 (ip), vehicle: Klucel (hydroxypropylcellulose) (HPC) 300 % of control | dose: 25.0 mg/kg/injection, schedule: Q04DX003 (ip), vehicle: Klucel (hydroxypropylcellulose) (HPC) 272 % of control | dose: 30.0 mg/kg/injection, schedule: Q04DX003 (ip), vehicle: Klucel (hydroxypropylcellulose) (HPC) 250 % of control and 272 % of control | dose: 44.0 mg/kg/injection, schedule: Q04DX003 (ip), vehicle: Klucel (hydroxypropylcellulose) (HPC) 250 % of control | dose: 50.0 mg/kg/injection, schedule: Q01DX009 (ip), vehicle: Klucel (hydroxypropylcellulose) (HPC) 210 % of control | dose: 50.0 mg/kg/injection, schedule: Q04DX003 (ip), vehicle: Klucel (hydroxypropylcellulose) (HPC) 254 % of control | dose: 66.0 mg/kg/injection, schedule: Q04DX003 (ip), vehicle: Klucel (hydroxypropylcellulose) (HPC) 241 % of control and 250 % of control | dose: 100.0 mg/kg/injection, schedule: Q04DX003 (ip), vehicle: Klucel (hydroxypropylcellulose) (HPC) 233 % of control and 254 % of control and 260 % of control | dose: 150.0 mg/kg/injection, schedule: Q04DX003 (ip), vehicle: Klucel (hydroxypropylcellulose) (HPC) 175 % of control | dose: 200.0 mg/kg/injection, schedule: Q04DX003 (ip), vehicle: Klucel (hydroxypropylcellulose) (HPC) 260 % of control and 272 % of control | dose: 400.0 mg/kg/injection, schedule: Q04DX003 (ip), vehicle: Klucel (hydroxypropylcellulose) (HPC) 234 % of control and 177 % of control | dose: 600.0 mg/kg/injection, schedule: Q04DX003 (ip), vehicle: Klucel (hydroxypropylcellulose) (HPC) 272 % of control
inactive: dose: 0.03 mg/kg/injection, schedule: Q04DX003 (ip), vehicle: Klucel (hydroxypropylcellulose) (HPC) 100 % of control | dose: 0.06 mg/kg/injection, schedule: Q04DX003 (ip), vehicle: Klucel (hydroxypropylcellulose) (HPC) 108 % of control | dose: 0.12 mg/kg/injection, schedule: Q01DX009 (ip), vehicle: Klucel (hydroxypropylcellulose) (HPC) 111 % of control | dose: 0.12 mg/kg/injection, schedule: Q04DX003 (ip), vehicle: Klucel (hydroxypropylcellulose) (HPC) 108 % of control | dose: 0.6 mg/kg/injection, schedule: Q04DX003 (ip), vehicle: Klucel (hydroxypropylcellulose) (HPC) 117 % of control | dose: 1.0 mg/kg/injection, schedule: Q01DX009 (ip), vehicle: Klucel (hydroxypropylcellulose) (HPC) 94 % of control | dose: 150.0 mg/kg/injection, schedule: Q01DX009 (ip), vehicle: Klucel (hydroxypropylcellulose) (HPC) 115 % of control | dose: 400.0 mg/kg/injection, schedule: Q01DX009 (ip), vehicle: Klucel (hydroxypropylcellulose) (HPC) 115 % of control

CC(=O)c1cccc(NC2C(N)C(NC(=O)N(C)C)(C(C)O)C(C)(O)C2(O)COC(=O)c2c(C)cccc2O)c1 (stereo not drawn)
active: dose: 5.4 mg/kg/injection, schedule: Q04DX003 (ip), vehicle: alkali diluted with saline 167 % of control | dose: 6.5 mg/kg/injection, schedule: Q04DX003 (ip), vehicle: alkali diluted with saline 163 % of control | dose: 8.64 mg/kg/injection, schedule: Q04DX003 (ip), vehicle: alkali diluted with saline 159 % of control | dose: 9.0 mg/kg/injection, schedule: Q04DX003 (ip), vehicle: alkali diluted with saline 170 % of control | dose: 10.8 mg/kg/injection, schedule: Q04DX003 (ip), vehicle: alkali diluted with saline 169 % of control

COc1ccc(C(O)CN)cc1 (stereo not drawn)
inactive: [1] 98 % of control | [2] 97 % of control | [3] 96 % of control

CC1CN1c1nc(N2CC2C)nc(N2CC2C)n1 (stereo not drawn)
inactive: dose: 3.0 mg/kg/injection, schedule: Q01DX009 (ip), vehicle: saline 104 % of control | dose: 3.0 mg/kg/injection, schedule: Q04DX003 (ip), vehicle: saline 109 % of control | dose: 6.0 mg/kg/injection, schedule: Q01DX009 (ip), vehicle: saline 112 % of control | dose: 6.0 mg/kg/injection, schedule: Q04DX003 (ip), vehicle: saline 109 % of control | dose: 12.0 mg/kg/injection, schedule: Q04DX003 (ip), vehicle: saline 114 % of control | dose: 12.5 mg/kg/injection, schedule: Q04DX003 (ip), vehicle: saline 120 % of control

COc1cc(O)c(C(=O)c2ccccc2)cc1S(=O)(=O)O
inactive: [4] 110 % of control | [1] 109 % of control | dose: 200.0 mg/kg/injection, schedule: Q01DX009 (ip), vehicle: saline 110 % of control | [2] 100 % of control | [5] 110 % of control | [3] 100 % of control

O=C(O)C1OC12CCCCC2 (stereo not drawn)
inactive: [1] 91 % of control | [2] 91 % of control | [3] 91 % of control

COc1ccc(C(c2ccc(OC)cc2)C(Cl)(Cl)Cl)cc1
inactive: dose: 100.0 mg/kg/injection, schedule: Q01DX001 (ip), vehicle: Klucel (hydroxypropylcellulose) (HPC) 104 % of control | dose: 200.0 mg/kg/injection, schedule: Q01DX001 (ip), vehicle: Klucel (hydroxypropylcellulose) (HPC) 100 % of control | dose: 400.0 mg/kg/injection, schedule: Q01DX001 (ip), vehicle: Klucel (hydroxypropylcellulose) (HPC) 100 % of control

OCC12CCCCC1CC1(CC2)OCCO1 (stereo not drawn)
inactive: [4] 92 % of control | dose: 100.0 mg/kg/injection, schedule: Q04DX003 (ip), vehicle: saline with Tween-80 95 % of control | dose: 200.0 mg/kg/injection, schedule: Q04DX003 (ip), vehicle: saline with Tween-80 90 % of control | [5] 96 % of control | dose: 400.0 mg/kg/injection, schedule: Q04DX003 (ip), vehicle: saline with Tween-80 90 % of control

CN(C)CCNc1cc(O)c2c(c1O)C(=O)c1ccccc1C2=O
inactive: dose: 50.0 mg/kg/injection, schedule: Q01DX005 (ip), vehicle: saline with Tween-80 113 % of control | dose: 100.0 mg/kg/injection, schedule: Q01DX005 (ip), vehicle: saline with Tween-80 103 % of control | dose: 200.0 mg/kg/injection, schedule: Q01DX005 (ip), vehicle: saline with Tween-80 113 % of control
